Data published in PubChem BioAssay (NCI).
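All cell lines were grown in 96-well plates and treated with compound for 48 hours. GI50 marks 50% less growth. At the TGI there is no net growth.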

Columns and labels:
Test in all cases: NCI tumour cell line growth inhibition, 48 h
[1] = system: SR leukemia
[2] = system: ACHN renal
[3] = system: SN12C renal
[4] = system: SF-268 CNS
[5] = system: SK-MEL-2 melanoma
[6] = system: CCRF-CEM leukemia
[7] = system: KM12 colon
[8] = system: MCF7 breast
[9] = system: MDA-MB-435
[10] = system: PC-3 prostate

Structure (SMILES)	TGI [1] [µM]	TGI [2] [µM]	TGI [3] [µM]	TGI [4] [µM]	TGI [5] [µM]	TGI [6] [µM]	TGI [7] [µM]	GI50 [1] [µM]	GI50 [2] [µM]	GI50 [8] [µM]	TGI [8] [µM]	GI50 [3] [µM]	GI50 [4] [µM]	GI50 [5] [µM]	GI50 [7] [µM]	GI50 [9] [µM]	TGI [9] [µM]	GI50 [10] [µM]	TGI [10] [µM]	GI50 [6] [µM]
C/C(=N/NC(N)=S)C(CN1CCOCC1)C(C1=C(O)c2ccccc2OC1)c1ccccc1 (configuration not stated)	> 100	> 100	> 100	> 100	> 100	> 100	> 100	–	–	–	–	–	–	–	–	–	–	–	–	–
COc1cc(N)c(Cl)cc1C(=O)N[C@@H]1CCN(CCCOc2ccc(F)cc2)C[C@@H]1OC	50.4	> 100	> 100	> 100	> 100	–	> 100	13.6	> 100	57	> 100	> 100	> 100	> 100	33.3	> 100	> 100	–	–	–
CC(NC1CCCC[C@@H]1O)c1ccccc1 (some centres not stated)	–	> 100	> 100	–	> 100	> 100	> 100	–	–	–	–	–	–	–	–	–	–	–	–	–
CCOC(=O)NN1C(=O)C(=P(c2ccccc2)(c2ccccc2)c2ccccc2)C(C(=O)OC)=C1C	> 100	> 100	> 100	> 100	> 100	> 100	> 100	–	–	–	–	–	–	–	–	–	–	–	–	–
O=C1N=C2N=C(c3ccc(Cl)cc3)N(c3ccc(Cl)cc3)N2Sc2ccccc21	–	> 100	> 100	> 100	> 100	> 100	> 100	–	–	–	–	–	–	–	–	–	–	–	–	–
c1ccc(C2N=C(c3ccccn3)C(c3ccccn3)=NC2c2ccccc2)cc1 (configuration not stated)	–	> 100	–	> 100	> 100	> 100	> 100	–	–	–	–	–	–	–	–	–	–	–	–	–
Fc1ccc(-c2ncn(C3CCNCC3)c2-c2ccnc(Oc3ccc(Cl)cc3)n2)cc1	–	10.6	7.17	> 25	8.67	–	8.79	–	4.19	3.93	7.7	3.67	8.67	4.45	4.51	4.04	8.21	6.31	> 15.9	–
COC(=O)C1=C(O)c2cc(OC)c(OC)c(OC)c2C(c2ccc3c(c2)OCO3)[C@@H]1C(=O)OC (some centres not stated)	> 100	> 100	> 100	> 100	> 100	> 100	> 100	–	–	–	–	–	–	–	–	–	–	–	–	–
CCCCS(=O)(=O)c1cc(Nc2ccc(O)c3c2C(=O)c2ccccc2C3=O)ccc1C	–	> 100	> 100	> 100	> 100	> 100	> 100	–	> 100	1.25	> 100	> 100	57.7	26.5	> 100	–	–	> 100	> 100	> 100
COc1ccc(/C=C(\C#N)c2cc(OC)c(OC)c(OC)c2)cc1	–	> 100	> 100	> 100	> 100	> 43.5	> 100	< 0.01	0.0478	0.0272	> 50.3	0.0486	0.0481	0.0356	< 0.01	–	–	0.0308	> 87.1	0.0361
Nc1ccccc1SC(/C=C/NNC1=NC(c2ccccc2)C(c2ccccc2)=NN1)c1ccccc1 (configuration not stated)	–	28.6	31.5	17.1	33	7.94	29.1	–	–	–	–	–	–	–	–	–	–	–	–	–
O=C(Nc1ccccc1)N1C(c2ccccc2)=N[C@@H](c2ccccc2)[C@@H]1c1ccccc1	40.4	31.4	47.2	49.2	–	60	34	–	–	–	–	–	–	–	–	–	–	–	–	–
O=c1cc(-c2ccccc2)oc2cc(OCCCCCCCCCCOc3ccc4c(=O)cc(-c5ccccc5)oc4c3)ccc12	> 100	> 100	> 100	–	> 100	> 100	> 100	–	–	–	–	–	–	–	–	–	–	–	–	–
COc1ccc(CN2c3ccccc3Sc3ccccc32)cc1O	30.7	21.8	22.3	20.5	19.9	22.4	–	0.407	1.56	0.355	13.4	1.29	0.966	0.333	–	–	–	0.503	16.1	0.411
O=C(NNC(=O)c1ccncc1)C(=O)Nc1cc(Cl)c(Cl)cc1Cl	–	> 100	> 100	> 100	> 100	–	> 100	–	–	–	> 100	–	–	–	–	–	> 100	–	> 100	–
C=C(c1ccccc1)c1cc2c(=O)[nH]ccc2n1C	–	> 100	> 100	> 100	58.3	> 100	> 100	–	–	–	–	–	–	–	–	–	–	–	–	–
NCCOCCOCC(=O)O	> 100	> 100	> 100	> 100	> 100	–	> 100	–	–	–	–	–	–	–	–	–	–	–	–	–
O=C(O)C12C=CC(C1)c1ccccc12 (configuration not stated)	> 100	> 100	> 100	> 100	–	> 100	–	–	–	–	–	–	–	–	–	–	–	–	–	–

Structure (SMILES)	TGI [1] [µM]	TGI [2] [µM]	TGI [3] [µM]	TGI [4] [µM]	TGI [5] [µM]	TGI [6] [µM]	TGI [7] [µM]	GI50 [1] [µM]	GI50 [2] [µM]	GI50 [8] [µM]	TGI [8] [µM]	GI50 [3] [µM]	GI50 [4] [µM]	GI50 [5] [µM]	GI50 [7] [µM]	GI50 [9] [µM]	TGI [9] [µM]	GI50 [10] [µM]	TGI [10] [µM]	GI50 [6] [µM]
O=C(O)C1CC2C=CCC(C2)C1 (configuration not stated)	> 100	> 100	–	> 100	> 100	> 100	> 100	–	–	–	–	–	–	–	–	–	–	–	–	–
CCNC(=O)COc1ccc(Cl)c(C)c1	> 100	> 100	> 100	> 100	> 100	> 100	> 100	–	–	–	–	–	–	–	–	–	–	–	–	–
COc1ccc(OCC(=O)O)c2c1CCC(C)C2=O (configuration not stated)	–	> 100	> 100	> 100	> 100	> 100	> 100	–	–	–	–	–	–	–	–	–	–	–	–	–
COC(OC)c1cccnc1C	> 100	> 100	> 100	> 100	> 100	> 100	> 100	–	–	–	–	–	–	–	–	–	–	–	–	–
O=C1C(=O)N(c2cc(Cl)ccc2Cl)C(=O)C(=O)C1c1nc2ccccc2s1	–	> 100	> 100	> 100	> 100	> 100	> 100	–	–	–	–	–	–	–	–	–	–	–	–	–
Cc1nc(Nc2ccc(Cl)cc2)sc1C(=O)Nc1cccc2c(=O)[nH][nH]c(=O)c12	64.8	> 100	> 100	> 100	> 100	79.5	> 100	–	–	–	–	–	–	–	–	–	–	–	–	–
CC(C)(C1=NC(C(C)(C)C)CO1)C1=N[C@@H](C(C)(C)C)CO1 (some centres not stated)	> 100	> 100	> 100	> 100	> 100	> 100	> 100	–	–	–	–	–	–	–	–	–	–	–	–	–
COc1cc(C2CC(c3ccc(Cl)cc3)=NN2C(C)=O)ccc1Oc1ccnc2cc(Cl)ccc12 (configuration not stated)	> 100	–	> 100	–	82.8	> 100	> 100	> 100	–	> 100	> 100	> 100	–	15.9	> 100	> 100	> 100	–	–	> 100
Nc1ccc(C(=O)N/C(=C\c2ccc3c(c2)OCO3)c2nc3ccccc3s2)cc1	53.4	27.2	25.6	24.2	28	7.28	28	–	–	–	–	–	–	–	–	–	–	–	–	–
CN(C)C(=S)/N=c1\ssc(=Nc2ccccc2)n1-c1ccccc1	–	> 100	> 100	98.2	> 100	> 100	–	–	–	–	–	–	–	–	–	–	–	–	–	–
COc1c2c(c(O)c3c4c(c(C)cc13)C1OC3(C(OC)OC5CC(C)(O)C(OC6CC(C)(O)C(O)C(C)O6)C(C)O5)OC1C(OC)(O4)C31CO1)C(=O)C(O)CC2OC1CC(C)(O)C(OC(C)=O)C(C)O1 (configuration not stated)	–	0.0924	0.113	0.0167	< 0.01	–	< 0.01	–	–	–	–	–	–	–	–	–	–	–	–	–
C/C(=C\c1ccccc1)C(=O)c1c(C)cc(C)cc1C	> 100	> 100	> 100	> 100	> 100	> 100	> 100	–	–	–	–	–	–	–	–	–	–	–	–	–
Cc1cccc(C=NC23CC4CC(CC(C4)C2)C3)c1	–	> 100	> 100	> 100	> 100	> 100	> 100	–	–	–	–	–	–	–	–	–	–	–	–	–
COC(=O)CCC(NC(=S)N/N=C(\C)c1cccs1)C(=O)OC (configuration not stated)	–	> 100	> 100	> 100	> 100	–	> 100	–	–	–	–	–	–	–	–	–	–	–	–	–
O=C(NCCCN1CCN(CCCNC(=O)Nc2cc(Cl)ccc2Cl)CC1)Nc1cc(Cl)ccc1Cl	–	> 100	> 100	> 100	> 100	> 100	> 100	–	–	–	–	–	–	–	–	–	–	–	–	–
c1ccc(N2CCN(CCN3CCc4c([nH]c5ccccc45)C3c3cccnc3)CC2)cc1 (configuration not stated)	> 100	> 100	> 100	> 100	–	> 100	> 100	–	–	–	–	–	–	–	–	–	–	–	–	–
CCOC(=N)CC(=O)Nc1ccccc1CC	> 100	> 100	> 100	> 100	> 100	> 100	> 100	–	–	–	–	–	–	–	–	–	–	–	–	–
Cn1cnnc1Sc1c([N+](=O)[O-])nc(-c2ccc([N+](=O)[O-])cc2)n1C	35.5	33.7	29.6	32.5	29.8	33.7	41.2	–	–	–	–	–	–	–	–	–	–	–	–	–
